Data: patent US7105565B2 (dated 2006)

Compound | melting point
CC(C)CC(C)c1ccccc1NC(=O)c1cn(C)cc1C(F)(F)F (centres unmarked) | 83 to 85 °C
COCn1cc(C(=O)Nc2ccccc2C(C)CC(C)C)c(C(F)(F)F)c1 (centres unmarked) | 75 to 77 °C
